{
  "source": "paper PMC8348983",
  "about": "(International Journal of Molecular Sciences, 2021)",
  "type_in_all_cases": "biochemical",
  "key": {"[1]": {"target": "human recombinant AChE (Homo sapiens, UniProt P22303)", "sequence (P22303 32-614)": "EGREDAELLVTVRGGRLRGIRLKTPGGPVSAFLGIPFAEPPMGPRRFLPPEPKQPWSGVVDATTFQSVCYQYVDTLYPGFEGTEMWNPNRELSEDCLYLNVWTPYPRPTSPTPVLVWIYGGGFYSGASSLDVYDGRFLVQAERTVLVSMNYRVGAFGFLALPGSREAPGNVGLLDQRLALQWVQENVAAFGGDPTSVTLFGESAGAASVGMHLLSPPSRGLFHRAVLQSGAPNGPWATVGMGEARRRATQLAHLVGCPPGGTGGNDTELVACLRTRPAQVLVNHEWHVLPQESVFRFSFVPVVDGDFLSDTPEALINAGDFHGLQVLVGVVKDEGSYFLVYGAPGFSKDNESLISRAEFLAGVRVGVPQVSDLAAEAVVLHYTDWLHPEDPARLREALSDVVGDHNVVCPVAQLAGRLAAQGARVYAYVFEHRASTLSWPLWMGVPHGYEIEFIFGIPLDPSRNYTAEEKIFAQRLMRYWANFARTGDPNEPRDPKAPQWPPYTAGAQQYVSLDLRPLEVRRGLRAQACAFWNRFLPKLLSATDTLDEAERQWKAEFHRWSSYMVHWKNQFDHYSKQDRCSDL", "experiment": "biochemical"}, "[2]": {"target": "T1, hBuChE (Homo sapiens, UniProt P06276)", "T1 construct": "was used as a source of BChE and was prepared from heparinized human blood; from tissue; host or cells: human plasma from heparinized human blood", "experiment": "Kinetic study of hBuChE inhibition", "description": "Compound 6, the derivative with the most robust inhibitory activity, was subjected to enzyme kinetics analysis to determine the mode of hBuChE inhibition. Inhibition kinetics were elucidated from velocity curves that were measured at several concentrations of substrate butyrylthiocholine and test compound. The type of enzyme inhibition and corresponding kinetic parameters (Ki and Ki′) were determined by nonlinear regression analysis. Results for each type of model of inhibition (competitive, non-competitive, uncompetitive, and mixed) were compared by the sum-of-squares F-test. […].\nKinetic studies employed the same procedure that was previously described. Supplementary Materials provides details of this assay.\nBiological assays in detail hAChE and hBuChE Inhibition Assay\nThe inhibitory activities of prepared compounds and standards against human recombinant AChE (E.C.\n3.1.1.7) and human plasma BChE (E.C. 3.1.1.8) were determined using modified Ellman’s method […]\ncholinesterase activity). Human recombinant AChE, phosphate buffer (PB, pH = 7.4), 5,5’ -dithio-bis(2-nitrobenzoic) acid (Ellman’s reagent, DTNB), acetylthiocholine (ATCh), butyrylthiocholine (BTCh), and other used compounds were purchased from Sigma-Aldrich (Prague, Czech Republic). […]\nThe solutions of she corresponding cholinesterase in PB were prepared up to the final activity 0.002 U/µL. […] The increase of absorbance was measured at 412 nm using Multimode microplate reader Synergy 2 (BioTek Inc., Winooski, VT, USA). For the calculation of the resulting measured activity (the percentage of inhibition I) following formula was used: […]\nwhere ΔAi indicates absorbance change provided by adequate enzyme exposed to corresponding inhibitor and ΔA0 indicates absorbance change when a solution of PB was added instead of a solution of inhibitor. […]\nThe kinetic study hBuChE was performed by using above mentioned modified Ellman’s method. The values of Vmax and Km of the Michaelis-Menten kinetics as well as the values of Ki and Ki’ were calculated by nonlinear regression from the substrate velocity curves. […]"}, "[3]": {"target": "T2, MAO-A (Homo sapiens, UniProt P21397)", "T2 construct": "purchased Merck, Germany", "T2 sequence (P21397 1-527)": "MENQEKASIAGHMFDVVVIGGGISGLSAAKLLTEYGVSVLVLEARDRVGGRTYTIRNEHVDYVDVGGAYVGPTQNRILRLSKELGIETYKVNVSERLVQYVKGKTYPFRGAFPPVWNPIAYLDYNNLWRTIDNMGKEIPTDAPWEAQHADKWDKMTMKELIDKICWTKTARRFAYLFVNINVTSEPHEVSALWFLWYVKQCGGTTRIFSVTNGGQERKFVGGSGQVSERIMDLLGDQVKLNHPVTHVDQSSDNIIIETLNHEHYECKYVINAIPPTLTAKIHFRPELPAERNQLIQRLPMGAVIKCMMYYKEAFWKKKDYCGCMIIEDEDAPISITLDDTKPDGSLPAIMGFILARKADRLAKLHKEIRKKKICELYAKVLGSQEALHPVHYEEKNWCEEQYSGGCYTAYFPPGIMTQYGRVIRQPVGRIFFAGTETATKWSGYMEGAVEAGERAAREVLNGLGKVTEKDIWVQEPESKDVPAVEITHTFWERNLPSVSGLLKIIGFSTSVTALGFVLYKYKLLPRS", "experiment": "MAO-A inhibition assay", "description": "Since monoamine oxidase (MAO; EC 1.4.3.4) inhibitors are considered as neuroprotective agents, compound 6 was screened at two concentrations (1 and 10 µM) for its inhibition potential against both isoforms of human MAOs. […]; MAO inhibition assay was performed as previously described. Supplementary Materials provides details of this assay. […]\nThe reaction mixture contains 2.5mg/mL MAO -A or 6.25mg/mLMAO-B enzyme (Merck, Germany) and inhibitor in final concentrations of […] in 50 mM potassiumphosphate buffer with 20% (v/v) glycerol (pH 7.5). […] The sample was then centrifuged (16.500 g) for10 min.The deamination product of kynuramine formed during the enzymatic reaction 4-hydroxyquinoline (4-HQ) was determined by UHPLC-MS on a Zorbax RRHD Eclipse plus C18 column (2.1 mm x 50 mm, […]) (Agilent Technologies, USA), by using a 6470 Series Triple Quadrupole mass spectrometer (Agilent Technologies, USA) as detector with electrospray ionisation – positive ion mode. […]\n0.1% formic acid in water; (B) 0.1% formic acid in acetonitrile. IC 50of individual compounds were determined by nonlinear regression usingGraphPad Prism 8.0 (GraphPad Software, USA)."}},
  "data": [
    {"smiles": "C=CCOc1ccc(CCN(CC=C)Cc2ccc(OC)c(OCc3ccccc3)c2)cc1", "note": "[Compound 6, N-allyl-N-(3-benzyloxy-4-methoxybenzyl)-2-(4-allyloxyphenyl)ethan-1-amine]", "values": [
      {"measurement": "IC50", "setting": "[1]; mean ± SEM of three independent measurements, each in triplicate, read-out: IC50, hAChE ± SEM", "result": "> 100000", "unit": "nM"},
      {"measurement": "inhibition at 100 µM", "setting": "[1]; tested at 100 µM compound concentration, read-out: %Inhibition hAChE ± SEM", "result": "10.1 ± 0.6", "unit": "%"},
      {"measurement": "Ki′", "setting": "[2]; hBuChE, enzyme-substrate complex, nonlinear regression", "result": "347 ± 79", "unit": "nM"},
      {"measurement": "Ki", "setting": "[2]; hBuChE, substrate butyrylthiocholine, nonlinear regression", "result": "60.3 ± 11.6", "unit": "nM"},
      {"measurement": "type of hBuChE inhibition", "setting": "[2]; sum-of-squares F-test, p < 0.05, Lineweaver–Burk plot", "result": "mixed type of inhibition"},
      {"measurement": "IC50", "setting": "[3]", "result": "> 10000", "unit": "nM"},
      {"measurement": "residual activity of MAO-A", "setting": "[3]; 1 and 10 µM", "result": "higher than 68%"}
    ]}
  ]
}
